This assay deals with T1, KRAS G12C 1-169, his-tagged protein, GDP-loaded (Homo sapiens, UniProt P01116, G12C).
T1 construct: KRAS G12C 1-169, his-tagged protein, GDP-loaded; His tag
The experiment in a line: Biochemical assay: covalent modification of KRAS G12C, analysed by mass spectrometry (RapidFire/TOF or Q-Exactive). Note: time not given here. It is filed as binding. Conditions: Modification activity, modification percentage from MS peak intensities. In outline:
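GDP-loaded His-tagged KRAS G12C 1-169 (2 μM or 0.5 μM in 20 mM Hepes, 150 mM NaCl, 1 mM MgCl2) reacted with compound at 32 μM or 8 μM final (2% DMSO) for a set time, then quenched with formic acid. Percent covalent modification from deconvoluted intact-protein MS peak intensities (RapidFire/TOF or LC-Q Exactive).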

Each structure is given as a SMILES string.

As to `C=CC(=O)N1CC2(CCN(c3nc(OC[C@@H]4CCCN4C)nc(-c4c(C)ccc5cnn(C6CC6)c45)c3C#N)C2)C1` [Compound I-103, 4-(2-acryloyl-2,6-diazaspiro[3.4]octan-6-yl)-6-(1-cyclopropyl-6-methyl-1H-indazol-7-yl)-2-(((S)-1-methylpyrrolidin-2-yl)methoxy)pyrimidine-5-carbonitrile], the Binding % result was “+ (+ indicates binding activity greater than 0% and up to 50%)”.

Source of the values: patent US12134620B2 (ARAXES PHARMA LLC, priority 2018, dated 2024).
